Data from patent US12226401B2, “Molecular genetic approach to treatment and diagnosis of alcohol and drug dependence” (priority 2010, dated 2025).

Tested on: alcohol dependent individuals
Assay: Randomized, double-blind, placebo-controlled, 12-week clinical trial of ondansetron vs placebo in alcohol dependent individuals by genotype: drinks per drinking day (DDD)
Format: in vivo, human
Conditions: for Drinks per Drinking Days, Least Squares Mean (Estimated Mean): OND
Experimental: Two hundred and seventy eight male and female alcohol dependent individuals were entered into a randomized, double-blind, placebo-controlled, 12-week clinical trial. These individuals were divided into TT vs. […] The polymorphisms in 3''-UTR region of a gene may affect mRNA expression levels by altering their stability. […] Data was transformed to its natural log to correct for skewness. […] In total, ten SNPs in 5HT3a and nine SNPs in 5HT3b genes were analyzed in this study: […]

Structure (SMILES): Cc1nccn1CC1CCc2c(c3ccccc3n2C)C1=O (stereo not drawn) [ondansetron, 9-methyl-3-[(2-methyl-1H-imidazol-1-yl)methyl]-1,2,3,9-tetrahydrocarbazol-4-one]
- Estimate, OND vs. Placebo, drinks per drinking days (DDD) (AA or AC (RS1176719, RS17614942)): −2.83 DDD
- Estimate, OND vs. Placebo, drinks per drinking days (DDD) (AG or AC (RS1150226, RS17614942)): −2.12 DDD
- Estimate, OND vs. Placebo, drinks per drinking days (DDD) (AG or GG (RS1150226, RS1176713)): −2.43 DDD
- Least Squares Mean Difference, Drinks per Drinking Days, OND vs. Placebo (Among Comb (LL + TT or AC or AG)): −1.75
- Least Squares Mean Difference, Drinks per Drinking Days, Comb vs. Others (Among OND, Comb = LL + TT or AC or AG): −2.21
- Least Squares Mean Difference, Drinks per Drinking Days, AG/AA vs. GG (Among OND, RS1150226): −1.91
- Least Squares Mean Difference, Drinks per Drinking Days, AC/AA vs. CC (Among OND, RS17614942): −2.13
- Least Squares Mean Difference, Drinks per Drinking Days, AC/AA vs. CC (Among OND, model RS17614942 (CC/AA, AC), Table 2G): −2.22
- Least Squares Mean Difference, Drinks per Drinking Days, OND vs. Placebo (Among RS1150226 AG/AA): −1.80
- Least Squares Mean Difference, Drinks per Drinking Days, OND vs. Placebo (Among RS17614942 AC/AA): −2.51
- Least Squares Mean, Drinks per Drinking Days (Comb (LL + TT or AC or AG)): 4.21
- Estimate, OND vs. Placebo, drinks per drinking days (DDD) (GG or AC (RS1176713, RS17614942)): −3.08 DDD
- Estimate, OND vs. Placebo, drinks per drinking days (DDD) (LL + AA (5-HTTLPR, RS1176719)): −5.22 DDD
- Estimate, OND vs. Placebo, drinks per drinking days (DDD) (LL + AA + AC (5-HTTLPR, RS1176719, RS17614942)): −5.96 DDD
- Estimate, OND vs. Placebo, drinks per drinking days (DDD) (LL + AC (5-HTTLPR, RS17614942)): −4.24 DDD
- Estimate, OND vs. Placebo, drinks per drinking days (DDD) (LL + AG (5-HTTLPR, RS1150226)): −3.06 DDD
- Estimate, OND vs. Placebo, drinks per drinking days (DDD) (LL + AG + AC (5-HTTLPR, RS1150226, RS17614942)): −4.09 DDD
- Drinks per Drinking Days, Least Squares Estimated Mean Difference (LL + CT/TT: OND vs. Placebo, simplified model): −1.55
- Estimate, OND vs. Placebo, drinks per drinking days (DDD) (LL + GG (5-HTTLPR, RS1176713)): −4.48 DDD
- Estimate, OND vs. Placebo, drinks per drinking days (DDD) (LL + TT (5-HTTLPR, RS1042173)): −2.08 DDD
- Estimate, OND vs. Placebo, drinks per drinking days (DDD) (LL + TT + AA (5-HTTLPR, RS1042173, RS1176719)): −8.50 DDD
- Estimate, OND vs. Placebo, drinks per drinking days (DDD) (LL or AA or AC (5-HTTLPR, RS1176719, RS17614942)): −1.55 DDD
- Estimate, OND vs. Placebo, drinks per drinking days (DDD) (LL or AC (5-HTTLPR, RS17614942)): −1.53 DDD
- Estimate, OND vs. Placebo, drinks per drinking days (DDD) (LL or AG (5-HTTLPR, RS1150226)): −1.37 DDD
- Estimate, OND vs. Placebo, drinks per drinking days (DDD) (LL or AG or AC (5-HTTLPR, RS1150226, RS17614942)): −1.43 DDD
- Estimate, OND vs. Placebo, drinks per drinking days (DDD) (LL or GG (5-HTTLPR, RS1176713)): −1.60 DDD
- Estimate, OND vs. Placebo, drinks per drinking days (DDD) (LL or GG or AC (5-HTTLPR, RS1176713, RS17614942)): −1.57 DDD
- Estimate, OND vs. Placebo, drinks per drinking days (DDD) (LL or TT (5-HTTLPR, RS1042173)): −0.87 DDD
- Estimate, OND vs. Placebo, drinks per drinking days (DDD) (LL or TT or AA (5-HTTLPR, RS1042173, RS1176719)): −0.99 DDD
- Estimate, OND vs. Placebo, drinks per drinking days (DDD) (LL or TT or AA or AC (5-HTTLPR, RS1042173, RS1176719, RS17614942)): −1.02 DDD
- Estimate, OND vs. Placebo, drinks per drinking days (DDD) (LL or TT or AC (5-HTTLPR, RS1042173, RS17614942)): −0.97 DDD
- Estimate, OND vs. Placebo, drinks per drinking days (DDD) (LL or TT or AG (5-HTTLPR, RS1042173, RS1150226)): −0.94 DDD
- Estimate, OND vs. Placebo, drinks per drinking days (DDD) (LL or TT or AG or AC (5-HTTLPR, RS1042173, RS1150226, RS17614942)): −0.93 DDD
- Estimate, OND vs. Placebo, drinks per drinking days (DDD) (LL or TT or GG (5-HTTLPR, RS1042173, RS1176713)): −0.94 DDD
- Reduction of DDD by ondansetron, carriers vs non-carriers of genotype combination (LL+AC/AA (5HTTLPR + rs17614942)): 3.33 sd
- Reduction of DDD by ondansetron, carriers vs non-carriers of genotype combination (LL+CT/TT (5HTTLPR + rs4938056)): 1.82 sd
- Drinks per Drinking Days, Least Squares Estimated Mean Difference (OND vs. Placebo, all genotypes, model RS17614942): −0.96
- Drinks per Drinking Days, Least Squares Estimated Mean Difference (OND vs. Placebo, all genotypes, model RS17614942 and 5-HTTLPR): −1.13
- Drinks per Drinking Days, Least Squares Mean (Estimated Mean) (5-HTTLPR LL, model 5-HTTLPR and RS1062613): 4.80
- Drinks per Drinking Days, Least Squares Mean (Estimated Mean) (5-HTTLPR LL, model 5-HTTLPR and RS1150226): 4.59
- Drinks per Drinking Days, Least Squares Mean (Estimated Mean) (5-HTTLPR LL, model RS4938056 and 5-HTTLPR): 5.18
- Drinks per Drinking Days, Least Squares Mean (Estimated Mean) (5-HTTLPR LL, model RS17614942 and 5-HTTLPR): 4.43
- Drinks per Drinking Days, Least Squares Mean (Estimated Mean) (5-HTTLPR LS/SS, model 5-HTTLPR and RS1062613): 6.19
- Drinks per Drinking Days, Least Squares Mean (Estimated Mean) (5-HTTLPR LS/SS, model 5-HTTLPR and RS1150226): 5.86
- Drinks per Drinking Days, Least Squares Mean (Estimated Mean) (5-HTTLPR LS/SS, model RS4938056 and 5-HTTLPR): 6.54
- Drinks per Drinking Days, Least Squares Mean (Estimated Mean) (5-HTTLPR LS/SS, model RS17614942 and 5-HTTLPR): 5.76
- Drinks per Drinking Days, Least Squares Mean (Estimated Mean) (LL + CT/TT, simplified model): 4.61
- Drinks per Drinking Days, Least Squares Mean (Estimated Mean) (Others (not LL + CT/TT), simplified model): 6.25
- Drinks per Drinking Days, Least Squares Mean (Estimated Mean) (RS1062613 TC/CC, model 5-HTTLPR and RS1062613): 4.98
- Drinks per Drinking Days, Least Squares Mean (Estimated Mean) (RS1062613 TC/CC, model RS1062613): 5.13
- Drinks per Drinking Days, Least Squares Mean (Estimated Mean) (RS1062613 TT, model 5-HTTLPR and RS1062613): 6.02
- Drinks per Drinking Days, Least Squares Mean (Estimated Mean) (RS1062613 TT, model RS1062613): 6.19
- Drinks per Drinking Days, Least Squares Mean (Estimated Mean) (RS1150226 AG/AA, model 5-HTTLPR and RS1150226): 4.60
- Drinks per Drinking Days, Least Squares Mean (Estimated Mean) (RS1150226 AG/AA, model RS1150226): 4.58
- Drinks per Drinking Days, Least Squares Mean (Estimated Mean) (RS1150226 GG, model 5-HTTLPR and RS1150226): 5.85
- Drinks per Drinking Days, Least Squares Mean (Estimated Mean) (RS1150226 GG, model RS1150226): 6.04
- Drinks per Drinking Days, Least Squares Mean (Estimated Mean) (RS4938056 CC, model RS4938056): 6.67
- Drinks per Drinking Days, Least Squares Mean (Estimated Mean) (RS4938056 CC, model RS4938056 and 5-HTTLPR): 6.42
- Drinks per Drinking Days, Least Squares Mean (Estimated Mean) (RS4938056 CT/TT, model RS4938056): 5.43
- Drinks per Drinking Days, Least Squares Mean (Estimated Mean) (RS4938056 CT/TT, model RS4938056 and 5-HTTLPR): 5.29
- Drinks per Drinking Days, Least Squares Mean (Estimated Mean) (RS17614942 AC/AA, model RS17614942): 4.40
- Drinks per Drinking Days, Least Squares Mean (Estimated Mean) (RS17614942 AC/AA, model RS17614942 and 5-HTTLPR): 4.37
- Drinks per Drinking Days, Least Squares Mean (Estimated Mean) (RS17614942 CC, model RS17614942): 6.00
- Drinks per Drinking Days, Least Squares Mean (Estimated Mean) (RS17614942 CC, model RS17614942 and 5-HTTLPR): 5.82
- Drinks per Drinking Days, Least Squares Mean (Estimated Mean) (all genotypes, model 5-HTTLPR and RS1062613): 5.50
- Drinks per Drinking Days, Least Squares Mean (Estimated Mean) (all genotypes, model 5-HTTLPR and RS1150226): 5.23
- Drinks per Drinking Days, Least Squares Mean (Estimated Mean) (all genotypes, model RS1062613): 5.66
- Drinks per Drinking Days, Least Squares Mean (Estimated Mean) (all genotypes, model RS1150226): 5.31
- Drinks per Drinking Days, Least Squares Mean (Estimated Mean) (all genotypes, model RS4938056): 6.05
- Drinks per Drinking Days, Least Squares Mean (Estimated Mean) (all genotypes, model RS4938056 and 5-HTTLPR): 5.86
- Drinks per Drinking Days, Least Squares Mean (Estimated Mean) (all genotypes, model RS17614942): 5.20
- Drinks per Drinking Days, Least Squares Mean (Estimated Mean) (all genotypes, model RS17614942 and 5-HTTLPR): 5.09
- Drinks per Drinking Days, Least Squares Mean (Estimated Mean) (all genotypes, simplified model, combined genotype LL + CT/TT vs Others): 5.43
- Least Squares Mean, Drinks per Drinking Days (Others (not LL + TT or AC or AG)): 6.42
- Estimate, OND vs. Placebo, drinks per drinking days (DDD) (RS1042173 (TT)): −0.86 DDD
- Least Squares Mean, Drinks per Drinking Days (RS1150226 AG (as printed, Table 3F)): 6.08
- Least Squares Mean, Drinks per Drinking Days (RS1150226 AG/AA): 4.20
- Least Squares Mean, Drinks per Drinking Days (RS1150226 GG): 6.11
- Least Squares Mean, Drinks per Drinking Days (RS1150226 GG/AA (as printed, Table 3F)): 4.19
- Least Squares Mean, Drinks per Drinking Days (RS17614942 AC): 3.87
- Least Squares Mean, Drinks per Drinking Days (RS17614942 AC/AA): 3.90
